# Laboratory results as given in patent US11787799B2 (priority 2015, dated 2023).
# Where “and” joins values, the source holds several entries; their conditions need not be identical. Equal entries are not always repeated. Where two headings read alike, the source gives them in different places.
# Columns and labels:
# Measles = experiment: microbe, parasite or virus in culture; assay type: cell-based
# in vitro [1] = conditions: African green monkey
# Yellow Fever Virus = experiment: microbe, parasite or virus in culture; assay type: cell-based; conditions: read-out: EC50 Yellow Fever Virus
# in vitro [2] = conditions: African green monkey; remark: listed apart in the source
# Chikungunya = assay type: cell-based, chikungunya virus
# Enterovirus D68/Fermon = experiment: Antiviral assay, Enterovirus D68 strain Fermon in RD cells; assay type: cell-based
# Rabies = assay type: cell-based, rabies virus
# Coxsackievirus B5 = experiment: microbe, parasite or virus in culture; assay type: cell-based
# Coxsackievirus A9 = experiment: microbe, parasite or virus in culture; assay type: cell-based
# [3] = test system: RSV (resp syncitial virus); experiment: microbe, parasite or virus in culture; assay type: cell-based
# Echovirus 6 = experiment: microbe, parasite or virus in culture; assay type: cell-based; conditions: read-out: EC50 ECHO06
# [4] = test system: Enterovirus D68/US/KY/14-18953; experiment: Antiviral assay, Enterovirus D68 strain US/KY/14-18953 in RD cells; assay type: cell-based
# BHK-21 = conditions: read-out: CC50 (Rabies test)
# Rift Valley virus = experiment: organism not typed; assay type: cell-based
# Venezuelan Encephalitis = assay type: cell-based, Venezuelan encephalitis virus
# [5] = test system: Enterovirus D68/US/Mo/14-18949; experiment: Antiviral assay, Enterovirus D68 strain US/Mo/14-18949 in RD cells; assay type: cell-based
# SARS Coronavirus = assay type: cell-based
# Echovirus 9 = experiment: microbe, parasite or virus in culture; assay type: cell-based; conditions: read-out: EC50 ECHO09
# BHK = conditions: read-out: CC50 (Powassan test)
# Influenza A H1N1 = experiment: microbe, parasite or virus in culture; assay type: cell-based; conditions: read-out: EC50 Influenza A H1N1
# Vero = conditions: read-out: CC50 (Yellow Fever Virus test)
# Coxsackievirus B4 = experiment: microbe, parasite or virus in culture; assay type: cell-based
# Echovirus 11 = experiment: microbe, parasite or virus in culture; assay type: cell-based; conditions: read-out: EC50 ECHO11
# Coxsackievirus B1 = experiment: microbe, parasite or virus in culture; assay type: cell-based
# Enterovirus 71 = experiment: microbe, parasite or virus in culture; assay type: cell-based
# Powassan = assay type: cell-based, Powassan virus
# Poliovirus 3 = experiment: microbe, parasite or virus in culture; assay type: cell-based; conditions: read-out: EC50 PV3
# Echovirus 30 = experiment: microbe, parasite or virus in culture; assay type: cell-based; conditions: read-out: EC50 ECHO30
# Echovirus 7 = experiment: microbe, parasite or virus in culture; assay type: cell-based; conditions: read-out: EC50 ECHO07
# Japanese Encephalitis = assay type: cell-based
# Echovirus 25 = experiment: microbe, parasite or virus in culture; assay type: cell-based; conditions: read-out: EC50 ECHO25
# Poliovirus 1 = experiment: microbe, parasite or virus in culture; assay type: cell-based; conditions: read-out: EC50 PV1
# Punta Toro virus = experiment: microbe, parasite or virus in culture; assay type: cell-based
# Coxsackievirus B3-H3 = experiment: microbe, parasite or virus in culture; assay type: cell-based
# Coxsackievirus B2 = experiment: microbe, parasite or virus in culture; assay type: cell-based
# in vitro [6] = conditions: human
# in vitro [7] = experiment: in vitro
# in vitro [8] = conditions: dog
# [9] = read-out: CC50 (Rift Valley virus test), with Rift Valley virus MP-12 test
# [10] = read-out: CC50 (SARS Coronavirus test), with SARS Coronavirus Urbani test
# [11] = read-out: EC50 Rift Valley virus
# [12] = read-out: EC50 Punta Toro virus
# [13] = Enterovirus B, B5 / CVB5, read-out: EC50 CVB5
# [14] = Enterovirus B, A9, read-out: EC50 COX A9
# [15] = Enterovirus B, B4 / CVB4, read-out: EC50 CVB4
# [16] = Enterovirus B, B1 / CVB1, read-out: EC50 CVB1
# [17] = Enterovirus A, EV71, read-out: EC50 EV71
# [18] = Coxsackievirus, B3 / CVB3, read-out: EC50 CVB3-H3
# [19] = Enterovirus B, B2 / CVB2, read-out: EC50 CVB2
structure (smiles),measurement,setting,value
"Nc1cc2nc[nH]c2c(=O)[nH]1 [3-Deazaguanine, reference compound]",EC50,"Measles; Measles morbillivirus, Vero 76, read-out: EC50 Measles",2.4 µM
same,CC50,in vitro [1],> 100 µM
"O=c1cnn([C@@H]2O[C@H](CO)[C@@H](O)[C@H]2O)c(=O)[nH]1 [Compound 6-Azauridine, 6-Azauridine, reference compound]",EC50,"Yellow Fever Virus; Yellow fever virus, Vero",0.29 µM
same,CC50,in vitro [2],10 µM
CC(C)n1ncc2c(C(=O)Nc3ccccc3F)cc(-c3cccs3)nc21 [JX-001],EC50,Chikungunya,310 nM
same,EC50,Enterovirus D68/Fermon,350 ± 50 nM
same,EC50,Rabies,> 100 µM
same,EC50,Coxsackievirus B5; read-out: EC50 CVB5,2300 nM
same,EC50,Coxsackievirus A9; read-out: EC50 COX A9,2600 ± 900 nM
same,EC50,[3]; read-out: EC50 RSV,3.4 µM
same,EC50,Echovirus 6,2300 ± 900 nM
same,EC50,[4],500 ± 170 nM
same,EC50,Measles; read-out: EC50 Measles,> 4 µM
same,EC50,Yellow Fever Virus,> 4.8 µM
same,CC50,Vero 76; [9],50 µM
same,CC50,Vero 76; [10],3.3 µM
same,CC50,BHK-21,> 100 µM
same,EC50,Rift Valley virus; [11],> 50 µM
same,EC50,Venezuelan Encephalitis,> 980 nM
same,EC50,[5],330 ± 50 nM
same,EC50,SARS Coronavirus,3.2 µM
same,EC50,Echovirus 9,2100 ± 1200 nM
same,CC50,BHK,> 33 µM
same,EC50,Influenza A H1N1,> 100 µM
same,CC50,Vero,4.8 µM
same,EC50,Coxsackievirus B4; read-out: EC50 CVB4,2300 nM
same,EC50,Echovirus 11,1500 ± 400 nM
same,EC50,Coxsackievirus B1; read-out: EC50 CVB1,2400 ± 200 nM
same,EC50,Enterovirus 71; read-out: EC50 EV71,1800 ± 500 nM
same,EC50,Powassan,> 33 µM
same,EC50,Poliovirus 3,7 µM
same,EC50,Echovirus 30,1200 nM
same,CC50,MA-104,4.7 µM
same,EC50,Echovirus 7,2400 nM
same,CC50,HeLa-RW cells,12.5 µM
same,EC50,Japanese Encephalitis,> 14 nM
same,EC50,Echovirus 25,3000 nM
same,EC50,Poliovirus 1,7 µM
same,CC50,RD cells,200 µM
same,EC50,Punta Toro virus; [12],> 39 µM
same,EC50,Coxsackievirus B3-H3; read-out: EC50 CVB3-H3,1400 ± 600 nM
same,CC50,MDCK,> 100 µM
same,EC50,Coxsackievirus B2; read-out: EC50 CVB2,2800 ± 400 nM
CC(C)n1ncc2c(C(=O)Nc3ccc(F)cc3F)cc(-c3cccs3)nc21 [JX-008],EC50,Chikungunya,> 660 nM
same,EC50,Enterovirus D68/Fermon,330 ± 60 nM
same,EC50,Rabies,> 100 µM
same,CC50,LLC cells,> 200 µM
same,EC50,Coxsackievirus B5; read-out: EC50 CVB5,2300 nM
same,EC50,Coxsackievirus A9; read-out: EC50 COX A9,2300 ± 800 nM
same,EC50,[3]; read-out: EC50 RSV,> 100 µM
same,EC50,Echovirus 6,1900 ± 700 nM
same,EC50,[4],400 ± 170 nM
same,EC50,Measles; read-out: EC50 Measles,34 µM
same,EC50,Yellow Fever Virus,45 µM
same,CC50,Vero 76; [9],77 µM
same,CC50,Vero 76; [10],> 100 µM
same,CC50,BHK-21,> 100 µM
same,EC50,Rift Valley virus; [11],> 77 µM
same,EC50,Venezuelan Encephalitis,> 480 nM
same,EC50,[5],280 ± 80 nM
same,EC50,SARS Coronavirus,68 µM
same,EC50,Echovirus 9,1500 ± 1000 nM
same,CC50,BHK,38 µM
same,EC50,Influenza A H1N1,70 µM
same,CC50,Vero,50 µM
same,EC50,Coxsackievirus B4; read-out: EC50 CVB4,2300 nM
same,EC50,Echovirus 11,1400 ± 400 nM
same,EC50,Coxsackievirus B1; read-out: EC50 CVB1,2300 nM
same,EC50,Enterovirus 71; read-out: EC50 EV71,1600 ± 400 nM
same,EC50,Powassan,> 38 µM
same,EC50,Poliovirus 3,> 25 µM
same,EC50,Echovirus 30,800 nM
same,CC50,MA-104,> 100 µM
same,EC50,Echovirus 7,2400 nM
same,CC50,HeLa-RW cells,> 200 µM
same,EC50,Japanese Encephalitis,> 440 nM
same,EC50,Echovirus 25,1500 nM
same,EC50,Poliovirus 1,> 25 µM
same,CC50,RD cells,100 µM
same,EC50,Punta Toro virus; [12],23 µM
same,EC50,Coxsackievirus B3-H3; read-out: EC50 CVB3-H3,1400 ± 500 nM
same,CC50,MDCK,> 100 µM
same,EC50,Coxsackievirus B2; read-out: EC50 CVB2,2800 ± 400 nM
CC(C)n1ncc2c(C(=O)Nc3cccc(S(N)(=O)=O)c3)cc(-c3cccs3)nc21 [JX-025],EC50,Chikungunya,300 nM
same,EC50,Enterovirus D68/Fermon,100 nM and 150 nM
same,EC50,Rabies,> 12.2 µM
same,CC50,LLC cells,25 µM
same,EC50,Coxsackievirus B5; read-out: EC50 CVB5,1200 nM
same,EC50,Coxsackievirus A9; read-out: EC50 COX A9,2100 ± 700 nM
same,EC50,[3]; read-out: EC50 RSV,> 100 µM
same,EC50,Echovirus 6,1100 ± 300 nM
same,EC50,[4],150 nM
same,EC50,Measles; read-out: EC50 Measles,7.1 µM
same,EC50,Yellow Fever Virus,> 4.8 µM
same,CC50,Vero 76; [9],> 100 µM
same,CC50,Vero 76; [10],7.2 µM
same,CC50,BHK-21,12.2 µM
same,EC50,Rift Valley virus; [11],> 100 µM
same,EC50,Venezuelan Encephalitis,> 880 nM
same,EC50,[5],60 ± 20 nM
same,EC50,SARS Coronavirus,> 7.2 µM
same,EC50,Echovirus 9,1200 nM
same,CC50,BHK,8.9 µM
same,EC50,Influenza A H1N1,> 100 µM
same,CC50,Vero,4.8 µM
same,EC50,Coxsackievirus B4; read-out: EC50 CVB4,1100 ± 200 nM
same,EC50,Coxsackievirus B1; read-out: EC50 CVB1,1200 nM
same,EC50,Enterovirus 71; read-out: EC50 EV71,1300 ± 100 nM
same,EC50,Powassan,> 8.9 µM
same,EC50,Poliovirus 3,5 µM
same,EC50,Echovirus 30,600 nM
same,CC50,MA-104,> 100 µM
same,EC50,Echovirus 7,2100 ± 600 nM
same,CC50,HeLa-RW cells,50 µM
same,EC50,Japanese Encephalitis,310 nM
same,EC50,Echovirus 25,1100 nM
same,EC50,Poliovirus 1,5 µM
same,CC50,RD cells,50 µM
same,EC50,Punta Toro virus; [12],38 µM
same,EC50,Coxsackievirus B3-H3; read-out: EC50 CVB3-H3,300 nM
same,CC50,MDCK,> 100 µM
same,EC50,Coxsackievirus B2; read-out: EC50 CVB2,1200 nM
CC(C)n1ncc2c(N(C(=O)c3ccc(F)cc3)C(=O)c3ccc(F)cc3)cc(-c3cccs3)nc21 [JX-039],EC50,Coxsackievirus B5; [13],> 10000 nM
same,EC50,Coxsackievirus A9; [14],4500 nM
same,EC50,Echovirus 6; Enterovirus B,2400 nM
same,EC50,Echovirus 9; Enterovirus B,> 10000 nM
same,EC50,Coxsackievirus B4; [15],> 10000 nM
same,EC50,Echovirus 11; Enterovirus B,> 10000 nM
same,EC50,Coxsackievirus B1; [16],4700 nM
same,EC50,Enterovirus 71; [17],3200 ± 100 nM
same,EC50,Poliovirus 3; Enterovirus C,> 10 µM
same,EC50,Echovirus 30; Enterovirus B,> 10000 nM
same,EC50,Echovirus 7; Enterovirus B,> 10000 nM
same,EC50,Echovirus 25; Enterovirus B,> 10000 nM
same,EC50,Poliovirus 1; Enterovirus C,> 10 µM
same,EC50,Coxsackievirus B3-H3; [18],4700 nM
same,CC50,in vitro [6],10 µM
same,EC50,Coxsackievirus B2; [19],4700 nM
CC(C)n1ncc2c(NC(=O)c3ccc(F)cc3)cc(-c3cccs3)nc21 [JX-054],EC50,Enterovirus D68/Fermon; Enterovirus D,2400 nM
same,CC50,in vitro [7],50 µM
same,EC50,Coxsackievirus B5; [13],4700 nM
same,EC50,Coxsackievirus A9; [14],4700 nM
same,EC50,[4]; Enterovirus D,3400 ± 1180 nM
same,EC50,[5]; Enterovirus D,2530 ± 230 nM
same,EC50,Echovirus 9; Enterovirus B,2400 nM
same,EC50,Coxsackievirus B4; [15],4700 nM
same,EC50,Echovirus 11; Enterovirus B,3100 nM
same,EC50,Coxsackievirus B1; [16],4700 nM
same,EC50,Enterovirus 71; [17],4000 nM
same,EC50,Poliovirus 3; Enterovirus C,> 10 µM
same,EC50,Echovirus 30; Enterovirus B,4700 nM
same,EC50,Echovirus 7; Enterovirus B,4700 nM
same,EC50,Poliovirus 1; Enterovirus C,> 10 µM
same,EC50,Coxsackievirus B3-H3; [18],4700 nM
same,EC50,Coxsackievirus B2; [19],4700 nM
"NC(=O)c1ncn([C@@H]2O[C@H](CO)[C@@H](O)[C@H]2O)n1 [Ribavirin, reference compound]",EC50,"[3]; human respiratory syncytial virus, MA104, read-out: EC50 RSV",12 µM
same,EC50,"Rift Valley virus; Vero 76, read-out: EC50 Rift Valley virus",9.1 µM
same,EC50,"Influenza A H1N1; Influenza A virus, H1N1, MDCK",7.5 µM
same,CC50,in vitro [8],> 320 µM
same,EC50,"Punta Toro virus; Punta Toro virus, Vero 76, read-out: EC50 Punta Toro virus",11 µM
